Test results published in US20090220528A1, “Stimulation of Toll-Like Receptors on T Cells” (THE TRUSTEES OF THE UNIVERISTY OF PENNSYLVANIA CNETER FOR …, priority 2005, published 2009).

Tests used:
Assay type in all cases: cell-based, mouse
activated CD4+ T cells [1] = test: Survival of activated CD4+ T cells treated with TLR ligands (7-AAD/annexin exclusion)
Method: All CD4^+ T cell activation was conducted in complete culture medium composed of RPMI 1640 (Life Technologies, Grand Island, N.Y.), 1.5 μM 2-ME (Sigma-Aldrich, St. Louis, Mo.), 50 μg/ml gentamicin (Life Technologies), and 10% FCS (Mediatech, Washington, D.C.) at 37° C. in 5% CO2. Purified CD4^+ T cells from either BALB/c, MyD88^−/−, or MyD88^+/+ wild-type control littermates were activated on 24-well plates (Costar, Cambridge, Mass.) coated with 1.0 μg/ml CD3ε monoclonal antibody (2C11; BD Biosciences) and 1.0 μg/ml CD28 monoclonal antibody (37.51; BD Biosciences) for 16 hours. In experiments with DO11.10 mice, 1 μg/ml of pOVA, a peptide derived from chicken albumin amino acid residues […] was added to 2×10^6/ml erythrocyte-depleted splenocyte and lymph node cell pools for 16 hours. Following pOVA-induced activation, CD4^+ T cell APC complexes were disrupted with 5 mM EDTA/PBS for 10 minutes at 25° C., washed twice in PBS, and purified with magnetic beads using the MACS CD4^+ T cell isolation kit as described elsewhere herein. Purity of activated DO11.10 CD4^+ T cells exceeded 96%. As described elsewhere herein, the remainder of the contaminants by FACS analysis were CD8^+ T cells, with APCs at <0.1% by RT-PCR.
(§1) Following activation, purified CD4^+ T cells were washed twice in PBS and replated in culture medium at 10^6/ml. Cultures were left untreated or treated with either TLR ligands and/or inhibitors for indicated times and concentrations. Following incubation, CD4^+ T cells were washed twice in PBS/2% FBS and stained with CD4-allophycocyanin monoclonal antibody and 7-aminoactinomycin D (7-AAD; BD PharMingen) or annexin (BD PharMingen) and survival was assessed by exclusion of either of these two stains. For absolute live cell counts 50,000 CD45.1^+ splenocytes labeled with anti-CD45.1-PE monoclonal antibody (A20; BD PharMingen) were also added to stained CD4^+ T cell sample FACS tubes just before FACS analysis. Live CD4^+ T cell counts were calculated by taking the ratio of the number of CD4^+CD45.1^−7-ADD^− events collected to the number CD45.1^+ events collected and multiplying by 50,000. Proliferation was measured by CFSE dye dilution as previously described (Wells et al., 1997 J. Clin. Invest. 100:3173).
TLR ligands directly promote the survival of several cell types including neutrophils, DC, and B cells (Lundqvist et al., 2002, Cancer Immunol. Immunother. 51:139; Sabroe et al., 2003, J. Immunol. 170:5268; Grillot et al., 1996, J. Exp. Med. 183:381; Grillot et al., 1996, J. Exp. Med. 183:381). Since it was observed that activated CD4^+ T cells also express TLRs and signal in response to TLR ligands, the next set of experiments were designed to assess whether TLR ligands could directly enhance survival of these cells. DO11.10 CD4^+ T cells, that encode a transgenic TCR specific for a peptide derived from chicken OVA (pOVA), were activated with pOVA-pulsed APCs for 16 hours ex vivo, purified by magnetic beads to remove all non-CD4^+ T cells, and replated in unsupplemented culture medium in the absence or presence of TLR ligands. Survival was then assessed 72 hours following activation (FIG. 3A). Poly(I:C) or CpG DNA induced increases of activated CD4^+ T cell survival from 38% to 71 and 73%, respectively.

[2] = system: Foxp3+GFP+ and Foxp3-GFP- T cells; test: Foxp3 expression (GFP reporter) and IL-6 production in Foxp3+ and Foxp3- T cells under stimulation
Method: In order to study the effect of stimulation conditions on Foxp3 expression, T cells were from mice having a reporter construct introduced into the FOXP3 locus (Betteli et al., 2006, Nature 441:235-238) by sorting cells based on the GFP-reporter construct. The reporter construct expresses both Fox3p and the fluorescent protein GFP. T cells that are Foxp3^− (i.e. GFP^−) and T cells that are Foxp3^+ (i.e. GFP^+) were isolated (FIG. 21A). Foxp3 expression was then assessed under different stimulation conditions, […]

activated CD4+ T cells [3] = test: NF-κB and MAP kinase signaling analysis (phospho-specific Western blot); settings: anti-CD3/anti-CD28 activated BALB/c CD4+ T cells (FIG. 2)
Method: BALB/c CD44^lowCD25^−CD4^+ T cells were activated with plate-bound 1.0 μg/ml anti-CD3 and 1.0 μg/ml anti-CD28 monoclonal antibodies for 16 hours, washed, and rested for 8 hours at 37° C. Activated (1.5×10^6) CD4^+ T cells were then treated with TLR ligands for the indicated times, lysed in 1×SDS loading buffer (Bio-Rad Life Sciences), resolved on a 12% bis-Tris SDS-PAGE gel (Life Technologies), transferred to nitrocellulose filters (Life Technologies), and either probed with rabbit anti-mouse phospho-specific Abs for p-IκBα, p-p38, p-extracellular signal-regulated kinase (ERK) 1/2, or p-C-Jun N-terminal kinase (JNK)/stress-activated protein kinase (SAPK). To assess total amounts of signaling molecules, filters were also probed with either rabbit anti-mouse IκBα, p-38, ERK-1/2, or JNK/SAPK antibodies. Detection was conducted with HRP-conjugated goat ant-rabbit antibodies, ECL reagent (Amersham), and X-OMAT Film (Kodak, Rochester, N.Y.). All antibodies were purchased from Cell Signal Technologies (Beverly, Mass.).
TLR ligands induce the activation of nuclear factor NF-κB and MAP kinases in APCs (Akira, 2003, J. Biol. Chem. 278:38105; Martin et al., 2002 Biochem. Biophys. Acta. 1592:265). The next set of experiments were designed to assess whether TLR ligands could also induce NF-κB and MAP kinase activity in activated CD4^+ T cells (FIG. 2). […]

activated CD4+ T cells [4] = test: Absolute live CD4+ T cell counts by FACS; settings: up to 72 hours following activation with plate-bound anti-CD3 plus anti-CD28; relative to untreated cultures (FIG. 3C)
Method: as §1
Since percentage survival measurements may not be reflective of viable CD4^+ T cell numbers in vitro, absolute live cell number counts were quantified for periods up to 72 hours following activation of FACS sorted CD4^+ T cells with plate-bound anti-CD3 plus anti-CD28 monoclonal antibodies (FIGS. 3C).

poly(I:C)
activated CD4+ T cell survival (activated CD4+ T cells [1]; 72 hours following activation, DO11.10 CD4+ T cells activated with pOVA-pulsed APCs, purified, untreated 38% (FIG. 3A)): 71%
effect on activated CD4+ T cell survival (dose response) (activated CD4+ T cells [1]; FIG. 3B, purified activated CD4+ T cells): dose-dependent manner
activated CD4+ T cell survival in TLR ligand-treated cultures spiked with APCs (activated CD4+ T cells [1]; T cell-depleted lymph node cells and splenocytes (APC) added): significantly increased dose-responsive survival
Foxp3 expression in Foxp3+GFP+ cells (natural Tregs) ([2]; activated by anti-CD3 plus TLR ligand (FIG. 21B)): maintained Foxp3 expression
Foxp3 expression in Foxp3-GFP- cells (non-regulatory T cells) ([2]; stimulation with anti-CD3 and anti-CD28 antibodies and TGF-b, with additions (FIG. 22)): augmented
NF-κB activity (phosphorylation of IκBα) (activated CD4+ T cells [3]): induce rapid NF-κB activity
phosphorylation of p38 MAPK, ERK 1/2 and JNK/SAPK (activated CD4+ T cells [3]): able to effect phosphorylation
live CD4+ T cell numbers (activated CD4+ T cells [4]): concordant increases
